In article PMC8401404 (Molecules, 2021):
Structures can show the parent of a compound that is named as a salt. Values belong to the molecule of their own block, whether it stands above or below them.

Key:
[1] = MTS cytotoxicity assay, 2D cell culture, normal lung fibroblasts; details: human
Procedure: (§1) MTS assay gives us information about the number of living cells, in this case, metabolically active cells, whereas the BrdU proliferation assay gives a measure of the cell population in active division phase. Both assays were performed in 2D and 3D assay formats. For the 2D cell assay format, we used classic two-dimensional in vitro assays and as a 3D assay we used a hanging drop proliferation cell assay as previously described. We explored the activity of compounds on three human lung cancer cell lines, A549, HCC827 and NCI-H358. The compound activity was also tested on human lung fibroblast cell line MRC-5. A two-dimensional in vitro viability assay was performed on the MRC-5 cell line to see if tested compounds are cytotoxic on normal cell lines in low concentrations. […] 7.1.
(§2) Test compounds were synthesized by a research group at the Department of Organic Chemistry, Faculty of Chemical Engineering and Technology, University of Zagreb. […] Compounds were diluted 1:3. We transferred 500 nL (for 2D cell culture) or 400 nL (for 3D cell culture) of the compound from a mother plate to test plate by using Mosquito (TTP labtech). DMSO percentage in test concentrations was 0.5–1.0%. Starting concentration of the test compounds and standard compound doxorubicin was 50 µM (2D cell culture) or 100 µM (3D cell culture).
(§3) Cells were grown in 96-well cell star polystyrene plates. We seeded 10,000 cells/well in wells 4 h prior to the treatment with different compounds concentrations and incubated for 72 h. A cell viability assay was performed according to the manufacturer’s instructions, using CellTiter 96 aqueous solution, MTS kit (Promega, Madison, WI, USA). After 0.5–2 h of cell incubation with MTS in 2D cell culture, the plates were read using PE EnVision absorbance at 490 nm.
(§4) Calculation of IC50 data, curves and QC analysis was performed by using Excel tools and GraphPadPrism software (La Jolla, CA, USA), v. […] QC criteria parameters (Z’, S:B, R2, HillSlope) were checked for every IC50 curve.

A549 [2] = experiment: MTS cytotoxicity assay, 2D cell culture; details: Homo sapiens, A549, 72 h, read-out: Cytotoxicity Assay IC50 ± SD; A549 2D, 72 h, MTS; n = 2
Procedure: as §1, §2, §3, §4

HCC827 [3] = experiment: MTS cytotoxicity assay, 2D cell culture; details: Homo sapiens, HCC827, 72 h, read-out: Cytotoxicity Assay IC50 ± SD; HCC827 2D
Procedure: as §1, §2, §3, §4

NCI-H358 [4] = experiment: MTS cytotoxicity assay, 2D cell culture; details: Homo sapiens, NCI-H358, 72 h, read-out: Cytotoxicity Assay IC50 ± SD; NCI-H358 2D
Procedure: as §1, §2, §3, §4

A549 [5] = experiment: Cytotoxicity (viability) assay, 3D hanging drop cell culture; details: Homo sapiens, A549, 72 h, read-out: Cytotoxicity Assay IC50 ± SD; A549 3D
Procedure: as §1, §2
(§5) Cells were grown in 96-well Perfecta 3D hanging drop plates 5000 cell/well for 4 days until spheres were formed (and checked under the microscope). After sphere formation cells were treated with compounds followed by 72 h incubation. Cell viability assay was performed according to the manufacturer’s instructions, using CellTiter GLO 3D for 3D cell culture (Promega); cell incubation was 5 min on the shaker followed by 25 min incubation in the dark. Plates were read using PE EnVision luminescence.
as §4

HCC827 [6] = experiment: as above; details: Homo sapiens, HCC827, 72 h, read-out: Cytotoxicity Assay IC50 ± SD; HCC827 3D
Procedure: as §1, §2, §5, §4

NCI-H358 [7] = experiment: as above; details: Homo sapiens, NCI-H358, 72 h, read-out: Cytotoxicity Assay IC50 ± SD; NCI-H358 3D
Procedure: as §1, §2, §5, §4

A549 [8] = experiment: BrdU proliferation assay, 3D hanging drop cell culture; assay type: cell-based, human; details: Homo sapiens
Procedure: as §1, §2, §5
(§6) Proliferation assay was performed using Cell Proliferation ELISA, BrdU (Sigma, St. Louis, MO, USA). Briefly, 48 h hours after compound addition, 10 µM of BrdU was added to each well and incubated for the following 24 h. After incubation, a single cell suspension was made for 3D cell culture in the new 96-well plate. Plates were centrifuged and supernatants were removed from each plate (for 2D and 3D cell culture) followed by 60 min incubation at 60 °C. The rest of the proliferation assay was performed according to the manufacturer’s instructions.
as §4

HCC827 [9] = experiment: as above; assay type: cell-based, human; details: Homo sapiens
Procedure: as §1, §2, §5, §6, §4

NCI-H358 [10] = experiment: as above; assay type: cell-based, human; details: Homo sapiens, NCI-H358, 3D, n = 2, read-out: Proliferation Assay IC50 ± SD
Procedure: as §1, §2, §5, §6, §4

A549 [11] = experiment: BrdU proliferation assay, 2D cell culture; assay type: cell-based, human; details: Homo sapiens
Procedure: as §1, §2, §3, §6, §4

HCC827 [12] = experiment: BrdU proliferation assay, 2D cell culture; assay type: cell-based, human; details: Homo sapiens
Procedure: as §1, §2, §3, §6, §4

NCI-H358 [13] = experiment: BrdU proliferation assay, 2D cell culture; assay type: cell-based, human; details: Homo sapiens, NCI-H358, 2D, n = 2, read-out: Proliferation Assay IC50 ± SD
Procedure: as §1, §2, §3, §6, §4

S. aureus ATCC 29213 = experiment: Broth microdilution testing (CLSI); assay type: cell-based, Staphylococcus aureus; details: Staphylococcus aureus, ATCC29213, broth microdilution, 16–24h at 37 °C; read-out: MIC S. aureus ATCC 29213
Procedure: (§7) Broth microdilution testing was performed according to CLSI (Clinical Laboratory Standards Institute) guidelines. MIC (minimal inhibitory concentration) value was defined as the last tested concentration of compound at which there is no visible growth of bacteria. […] Clinical and Laboratory Standards Institute (CLSI) guidelines.

S. cerevisiae ATCC 7752 = experiment: Broth microdilution testing (CLSI); assay type: cell-based, Saccharomyces cerevisiae; details: Saccharomyces cerevisiae, ATCC7752; broth microdilution, 16–24h at 37 °C; read-out: MIC S. cerevisiae ATCC 7752
Procedure: as §7

E. coli ATCC 25922 = experiment: Broth microdilution testing (CLSI); assay type: cell-based, Escherichia coli; details: Escherichia coli, ATCC25922; broth microdilution, 16–24h at 37 °C; read-out: MIC E. coli ATCC 25922
Procedure: as §7

[14] = A549, 3D, BrdU, n = 2, read-out: Proliferation Assay IC50 ± SD
[15] = A549, 2D, BrdU, n = 2, read-out: Proliferation Assay IC50 ± SD
[16] = HCC827, read-out: Proliferation Assay IC50 ± SD, HCC827 2D

SMILES: COc1cc2c(Nc3ccc(Br)cc3F)ncnc2cc1OCC1CCN(C)CC1 [Vandetanib, reference compound]
IC50 at 72 h ([1]; MRC-5 normal lung fibroblasts, 2D culture): 11100 nM
IC50 (A549 [2]): > 25000 nM
IC50 (HCC827 [3]): 580 ± 30 nM
IC50 (NCI-H358 [4]): 3120 nM
IC50 (A549 [5]): > 50000 nM
IC50 (HCC827 [6]): 160 ± 40 nM
IC50 (NCI-H358 [7]): 380 ± 200 nM
IC50 (A549 [8]; [14]): > 50000 nM
IC50 (HCC827 [9]; HCC827, read-out: Proliferation Assay IC50 ± SD, HCC827 3D): 80 ± 20 nM
IC50 (NCI-H358 [10]): 380 ± 170 nM
IC50 (A549 [11]; [15]): > 25000 nM
IC50 (HCC827 [12]; [16]): 200 ± 110 nM
IC50 (NCI-H358 [13]): > 25000 nM

IC50 at 72 h [1]: 600 ± 10 nM
IC50 (A549 [8]; [14]): 480 ± 30 nM
IC50 (HCC827 [9]; HCC827, 3D, BrdU, n = 2, read-out: Proliferation Assay IC50 ± SD): 1890 ± 2300 nM
IC50 (NCI-H358 [10]): 2300 ± 1910 nM
IC50 (A549 [11]; [15]): 130 ± 10 nM
IC50 (HCC827 [12]; HCC827, 2D, BrdU, n = 2, read-out: Proliferation Assay IC50 ± SD): 250 ± 280 nM
IC50 (NCI-H358 [13]): 70 ± 40 nM
SMILES: COc1cccc2c1C(=O)c1c(O)c3c(c(O)c1C2=O)C[C@@](O)(C(=O)CO)C[C@@H]3O[C@H]1C[C@H](N)[C@H](O)[C@H](C)O1 [Doxorubicin, reference compound]
IC50 (A549 [2]): 1310 ± 110 nM
IC50 (HCC827 [3]): 320 ± 30 nM
IC50 (NCI-H358 [4]): 150 ± 60 nM
IC50 (A549 [5]): 5860 ± 1100 nM
IC50 (HCC827 [6]): 1470 ± 120 nM
IC50 (NCI-H358 [7]): 990 ± 150 nM

SMILES: CC(C)NC(=N)c1ccc2nc(-c3ccc(-c4ccc([N+](=O)[O-])cc4)o3)sc2c1 (as salt: hydrochloride) [Compound 5, 2-[5-(4-Nitrophenyl)furan-2-yl]-6-N-isopropilamidinobenzothiazole hydrochloride]
melting point: 201 to 206 °C

SMILES: CN[C@@H]1C[C@H]2O[C@@](C)([C@@H]1OC)n1c3ccccc3c3c4c(c5c6ccccc6n2c5c31)C(=O)NC4 [Staurosporine, reference compound]
IC50 at 72 h [1]: 31 ± 11 nM
IC50 (HCC827 [3]): 33 ± 2 nM
IC50 (A549 [8]; A549, read-out: Proliferation Assay IC50 ± SD, A549 3D): 110 ± 1 nM
IC50 (A549 [11]; A549, read-out: Proliferation Assay IC50 ± SD, A549 2D): 35 ± 17 nM
IC50 (HCC827 [12]; [16]): 4 ± 2 nM

SMILES: CC(C)NC(=N)c1ccc2nc(-c3ccc(-c4ccc(Cl)cc4)o3)sc2c1 (as salt: hydrochloride) [Compound 8, 2-[5-(4-Chlorophenyl)furan-2-yl]-6-N-isopropilamidinobenzothiazole hydrochloride]
melting point: 204 to 208 °C

MIC (S. aureus ATCC 29213): > 64 µM
MIC (S. cerevisiae ATCC 7752): < 0.125 µM
MIC (E. coli ATCC 25922): > 64 µM
SMILES: C[C@@H](c1ncncc1F)[C@](O)(Cn1cncn1)c1ccc(F)cc1F [Voriconazole, reference compound]

melting point: 242 to 246 °C
SMILES: CC(C)NC(=N)c1ccc2[nH]c(-c3ccc(-c4ccc(Cl)cc4)o3)nc2c1 (as salt: hydrochloride) [Compound 14, 2-[5-(4-Chlorophenyl)furan-2-yl]-5(6)-isopropilamidinobenzimidazole hydrochloride]
